Measurements as given in US10111883B1, “Selective P2X3 modulators” (BELLUS Health inc., priority 2017, dated 2018).

What was measured:
[1] = test system: guinea pig cough model (citric acid and histamine); experiment: Time course study in guinea pig cough response model; assay type: in vivo; conditions: single oral 30 mg/kg; for anti-tussive effect (significance): 8 hours post-dose
Protocol: (§1) Treatments (control, Compound 1 (0.3, 3 and 30 mg/kg) or AF-219 (0.3, 3 or 30 mg/kg)) were administered orally in seven groups of 6 animals 2 hours prior to tussive agent exposure (citric acid and histamine) and the number of coughs were counted for a period of 15 minutes.
Using the same guinea pig cough model as described in Example 2, a time course study was conducted to assess the duration of the anti-tussive effect of Compound 1 and AF-219 following the administration of a single oral 30 mg/kg dose. In this study, animals in groups of 6 were exposed to tussive agents (citric acid and histamine) at various times after the administration of the study drugs (2, 4, 6, 8 and 12 hours post-dose for Compound 1; and 2 and 8 hours post-dose for AF-219) and the number of coughs were measured for 15 minutes.

[2] = test system: guinea pig cough model (citric acid and histamine); experiment: Guinea pig cough response model (dose response); assay type: in vivo; conditions: for reduction in cough vs. control: 2 hours prior to citric acid and histamine, coughs counted 15 minutes, statistically significant; for reduction in cough frequency as compared to the control (dose dependence): 0.3, 3 and 30 mg/kg oral
Text: The anti-tussive effect of Compound 1 was compared to that of AF-219 in a guinea pig cough model. Guinea pigs are the most commonly used animal in cough studies for both the investigation of the cough reflex at a fundamental level and for use as an antitussive screen (Mackensie et al., Drug Discovery Today, 2004, 1, 297-302). In the guinea pig, it was shown that exposure to ATP and histamine aerosols increases cough responses to tussive stimuli via P2X3 receptor-mediated mechanisms (Kamei et al., Eur J Pharmacol (2005) 528: 158-161; Kamei et al., Eur J Pharmacol (2006) 547: 160-164).
as §1

taste function = experiment: Two bottle taste study (water vs quinine); assay type: in vivo, rat; conditions: 10 or 20 mg/kg intraperitoneally; for effect on taste function: rat; for quinine drunk relative to control: rats water-fasted overnight, volume measured for 15 minutes at Cmax
Protocol: A rat taste model was used to compare the effect of Compound 1 on taste function with that of AF-219. Animals were water-fasted overnight and presented with one bottle of water and one bottle of (bitter-tasting) quinine at the time corresponding to the maximum plasma concentration of study drugs; and the volume of liquid consumed from each bottle was measured for 15 minutes. Treatments (control, Compound 1 (10 or 20 mg/kg) or AF-219 (10 or 20 mg/kg)) were administered intraperitoneally in two groups of 10 rats.

[3] = test system: P2X3 and P2X2/P2X3 channel; experiment: Fluo-8 calcium assay, antagonism of P2X3 versus P2X2/P2X3 channels in HEK293 cells; assay type: cell-based; conditions: human P2X3 and P2X2/P2X3 in HEK293 cells, meATP stimulation; IC50s only in FIG. 3
Protocol: The ability of the compounds described herein and Gefapixant (also known as AF-219) to act as an antagonist of the P2X3 and P2X2/P2X3 channel (encoded by the human P2RX2 and P2RX3 genes, stably expressed in HEK293 cells) was evaluated with a Fluo-8 calcium kit. Compounds 1, 2, 9, 11, 15, and AF-219 were evaluated at twelve concentrations.
For the antagonist effect assessment, the cells were pre-incubated with Compounds 1, 2, 9, 11, 15, and AF-219 for 20 minutes, then stimulated with the P2X3 and P2X2/P2X3 agonist α,β-methyleneATP (meATP) at final concentrations of 3 μM and 30 μM. Four minutes fifty seconds after addition of meATP, ionomycin was added at a final concentration of 5 μM in order to obtain the maximum calcium influx and fluorescence signal possible from the cells. Fluorescence was recorded continuously for 10 minutes, starting 10 seconds prior to the addition of meATP.

effect on taste function (taste function) | Compound | duration of anti-tussive effect [1] | reduction in cough frequency compared to control (significance) ([1]; 2 hours post-dose) | anti-tussive effect (significance) [1] | reduction in cough vs. control ([2]; 30 mg/kg oral) | reduction in cough frequency as compared to the control (dose dependence) [2] | quinine drunk relative to control (taste function) | selectivity as P2X3 antagonist (P2X3 versus P2X2/3) [3] | also measured
altered taste function | COc1cc(C(C)C)c(Oc2cnc(N)nc2N)cc1S(N)(=O)=O [AF-219, Gefapixant, reference compound] | comparable duration of effect | statistically significant | no longer significant | 45% | comparable dose-dependent reduction in cough frequency | approximately 5 times |  | 
did not | CNC(=O)c1cc(F)c(-c2nc3cc(C)ccn3c2C[C@H]2CN(C(=O)OC)CCO2)c(F)c1 [Compound 1] | comparable duration of effect | statistically significant | no longer significant | 52% | comparable dose-dependent reduction in cough frequency | did not drink more quinine than the control animals | selective P2X3 antagonists | reduction in cough frequency compared to control (significance) ([1]; 4 hours post-dose): statistically significant; reduction in cough frequency compared to control (significance) ([1]; 6 hours post-dose): statistically significant; reduction in cough vs. control ([2]; 3 mg/kg oral): 39%
 | CCC(=O)N1CCO[C@@H](Cc2c(-c3c(F)cc(C(=O)NC)cc3F)nc3cc(C)ccn23)C1 [Compound 2] |  |  |  |  |  |  | selective P2X3 antagonists | 
 | CNC(=O)c1cc(F)c(-c2nc3cc(C)ccn3c2C[C@H]2CN(C(C)=O)CCO2)cc1F [Compound 9] |  |  |  |  |  |  | selective P2X3 antagonists | 
 | CNC(=O)c1ccc(-c2nc3cc(Cl)ccn3c2C[C@H]2CN(C(C)=O)CCO2)c(C)c1 [Compound 11] |  |  |  |  |  |  | selective P2X3 antagonists | 
 | CNC(=O)c1cc(F)c(-c2nc3cc(Cl)ccn3c2C[C@H]2CN(C(C)=O)CCO2)c(F)c1 [Compound 15] |  |  |  |  |  |  | selective P2X3 antagonists | 
